Reference: patent US12539279B2, “Supramolecular ionizable lipid molecules with heteroatomic tuning for nucleic acid delivery” (priority 2023, dated 2026)
Entries after “also recorded” stand apart in the source; their conditions may differ. Read-outs that look alike come from different tables or passages of the source. Blank lines part the entries; values can stand above or below the compound they belong to.

Experiments:
[1] = mRNA encapsulation efficiency (modified Quant-iT RiboGreen assay); assay type: physicochemical; settings: LNP before freezing
Experimental: For LNPs encapsulating mRNA, mRNA concentration and encapsulation efficiency were determined using a modified Quant-iT RiboGreen assay (Invitrogen). The assay was performed in triplicates in a 96 well plate. 12 μL of the LNP sample or TE buffer (composed of 10 mM Tris-HCl containing 1 mM EDTA·Na2) (blank sample) was diluted in 300 μL of 1×TE buffer pH 7.5. 50 μL of the diluted samples were transferred to 6 separate wells and either 50 μL of TE buffer or 50 μL of a 4% Triton X-100 solution in TE buffer was added to the wells. Two 6-point standard curves ([…]) were prepared in the same plate by diluting Firefly luciferase mRNA to a final volume of 100 μL in 2% Triton X-100 or TE buffer. The plate was then incubated for 10 min at 40° C. with gentle shaking. The Ribogreen reagent was diluted 1:100 in TE buffer, and 100 μL of this solution was added to each well. […] Fluorescence intensity was measured with a plate reader at an excitation wavelength of 480 nm and an emission wavelength of 525 nm. The raw fluorescence values were subtracted by the background fluorescence (blank sample). The concentration of free mRNA and total mRNA were determined by linear interpolation of the appropriate standard curve. Encapsulation efficiency was determined by dividing the calculated concentration of encapsulated mRNA by the total mRNA concentration in the LNP sample.

[2] = assay type: physicochemical
Experimental: Determination of the apparent pKa of LNPs was carried out using a TNS assay. Briefly, a series of buffers was generated by titrating a solution containing 10 mM citrate, 10 mM phosphate, 10 mM borate, and 150 mM NaCl with 1.0 M HCl. Aliquots of this combined buffer were taken to generate 12 total buffers ranging from pH 4.0 to 9.5 in increments of 0.5 pH. LNPs (diluted to 100 uM of ionizable lipid in distilled water) and 6-(p-toluidino)-2-naphthalenesulfonic acid (TNS, Sigma Aldrich, 60 uM in distilled water) were diluted into these buffers to a final concentration of 9 and 5.45 μM, respectively. The plate was covered and equilibrated at room temperature for 20 min. Fluorescence intensity was determined using a BioTek H1 Synergy plate reader (325 nm excitation/435 nm emission). The raw fluorescence values were fit using GraphPad Prism 8 to determine pKa, which corresponds to the pH value at 50% max fluorescence.

[3] = system: firefly luciferase protein expression; assay: Intramuscular expression profile of formulated firefly luciferase mRNA in mice (IVIS); assay type: in vivo, BALB/c mice; settings: intramuscular firefly luciferase mRNA-LNP
Experimental: (§1) All procedures used in animal studies conducted at the University of Toronto were approved by Institutional Animal Care and Use committee (IACUC) under protocol number 20012621 and comply with all applicable local, provincial, and federal regulations. Female BALB/c mice (7-8 weeks old) were purchased from Charles River Laboratories and acclimated for 1 to 2 weeks before initiation of the study.
Mice (n=4) were injected in both quadriceps with 0.5 μg of formulated firefly luciferase mRNA in 50 μL. At various timepoints (6 hours, 24 hours, 48 hours, and 96 hours post-dose), mice were injected intraperitoneally with 3 mg D-Luciferin (Thermo Scientific 88291) in 200 μL 1×PBS. 5 minutes later, mice were anesthetized and imaged on an in vivo imaging system (PerkinElmer, IVIS Spectrum) to measure total bioluminescent flux (photons/second) in each hindlimb (FIG. 2). The area under curve (AUC) for individual hindlimbs was determined with GraphPad Prism 9.

[4] = system: firefly luciferase mRNA expression in liver, spleen, lungs, heart, kidneys; assay: Organ expression of firefly luciferase mRNA after intravenous injection in mice; assay type: in vivo, BALB/c mice; settings: 6 hours post-dose; for organ in which the highest total flux was measured: intravenous 0.5 μg mRNA
Experimental: as §1
Mice (n=3) were injected intravenously (tail vein) with 0.5 μg of formulated firefly luciferase mRNA in 200 μL. At 6 hours post-dose, mice were injected intraperitoneally with 3 mg D-Luciferin (Thermo Scientific 88291) in 200 μL 1×PBS. 5 minutes later, mice were euthanized and key organs (liver, spleen, kidneys, lungs, and heart) were harvested and immediately imaged on an in vivo imaging system (PerkinElmer, IVIS Spectrum) to measure total bioluminescent flux (photons/second). LNPs formulated with compounds I-2, I-4, I-5, I-6, I-8 were tested for their ability to functionally deliver firefly luciferase mRNA to the major organs (liver, spleen, lungs, heart, kidneys) after intravenous injection and were compared to compounds I-12 and SM-102.

[5] = Pharmacokinetics after intramuscular injection of mRNA-LNPs in mice; assay type: in vivo, female CD-1 mice; settings: for Kp / half-life / AUC(0-t) / Cmax: female; for half-life / AUC(0-t) / Cmax: CD-1; for half-life: I-12 estimate not considered accurate, read-out: estimated apparent half-life (t1/2) in plasma (converted); for AUC(0-t): read-out: Overall plasma exposure (AUC0-tlast); for Cmax: read-out: maximum plasma concentration (Cmax); for Overall tissue exposure (AUC0-tlast), liver: mouse liver; for Overall tissue exposure (AUC0-tlast), muscle: mouse muscle; for time of peak plasma level: 12.312 μg Compound I-12 or 12.764 μg Compound I-6; for Overall tissue exposure (AUC0-tlast), spleen: mouse spleen; for detection in urine: mouse urine
Experimental: Pharmacokinetic studies in mice were conducted according to Transpharmation Canada Ltd. standard operating procedures (SOPs) and accepted scientific practices but was not in accordance with the principles of Good Laboratory Practice (GLP). Two studies were conducted and have been combined for analysis. Their objective was to determine the concentrations of two ionizable lipids, Compound I-12, and Compound I-6, in plasma, muscle, liver, spleen, urine, and feces following intramuscular (IM) injection of each lipid to groups of female CD-1 mice. All animals received an intramuscular injection of one of the lipids, formulated as lipid nanoparticles (LNPs) with mRNA, into the right quadricep. Doses administered IM were 12.312 μg of Compound I-12 and 12.764 μg of Compound I-6, corresponding to 0.5 μg of mRNA formulated in LNPs. Animals in study 1 were group housed in metabolic cages (n=3 per cage) and euthanized at 6 timepoints (3, 6, 12, 24, 48 and 96 hours) over 4 days-post injection for the collection of blood, liver, spleen, and muscle (n=3/time-point). A single pooled urine and feces sample was also collected from each cage at the appropriate time-point. In study 2, animals were housed in shoebox cages and samples (n=4/time-point) were collected at 6, 12, 24, 48, 96 and 168 hours (Compound I-12 and Compound I-6) and at 21 days (I-12 only, n=3) post-dose. A single pooled feces sample was also collected from each cage at the time of cage changes and weighed following terminal collections. Blood samples were divided for bioanalysis and diagnostic testing. Data from both studies was combined for data analysis. Tandem liquid chromatography-mass spectrometry (LC-MS/MS) methods were developed for the quantification of Compound I-12 and Compound I-6 in mouse plasma, muscle, liver, spleen, urine, and feces. The qualified methods were used to determine the concentration of the analytes in each matrix. The pharmacokinetics (PK) parameters for Compound I-12 and Compound I-6 were estimated from the plasma, muscle, liver, and spleen concentration versus time curves for each animal using Phoenix® WinNonlin 8.3 (Certara, Mountainview, CA).

[6] = assay type: physicochemical; settings: for time required to have measurable levels of hydrolysis: 2.5 eq. KOH in d4-methanol, 1H NMR
Experimental: Ionizable lipids including compounds described herein (2 μmol) were hydrolyzed with 2.5 eq. of KOH (200 μL, 0.025 M in d4-methanol) in a 3 mm NMR tube. 1H-NMR was acquired with a 700 MHz Agilent DD2 Spectrometer every 5 min for a total of 180 min. Additionally, spectra were acquired at 24 h, 48 h, 72 h, 144 h, 192 h, and 240 h for I-12, ALC-0315, and DLin-MC3-DMA. Data acquisition started ˜10 min after the start of the reaction due to sample preparation and tune/lock/shim. Ester peaks were integrated using MestReNova and normalized to value at t=0 min. The data series were fitted to a one phase decay exponential following y=e, where k is the rate of hydrolysis.

[7] = CD-1, liver, mouse, IM mRNA-LNP, read-out: tissue/plasma AUC ratio, liver
[8] = CD-1, muscle, mouse, IM mRNA-LNP, read-out: tissue/plasma AUC ratio, muscle
[9] = CD-1, spleen, mouse, IM mRNA-LNP, read-out: tissue/plasma AUC ratio, spleen

Apparent pKa [2]: 6-7
Compound: CCCCCCCCCCN(CCCCCCCCCC)CCCOC(=O)CCCN(CCO)CCCC(=O)OCCCN(CCCCCCCCCC)CCCCCCCCCC [Compound I-4]
intramuscular expression (in words) [3]: higher intramuscular expression than DLin-MC3-DMA
organ in which the highest total flux was measured [4]: liver
fraction of expression in the spleen compared with SM-102 ([4]; intravenous): higher fraction of expression in the spleen than SM-102

Apparent pKa [2]: 6-7
Compound: CCCCCCCCCCN(CCCCCCCCCC)CCCCOC(=O)CCCN(CCO)CCCC(=O)OCCCCN(CCCCCCCCCC)CCCCCCCCCC [Compound I-5]
intramuscular expression (in words) [3]: higher intramuscular expression than DLin-MC3-DMA
organ in which the highest total flux was measured [4]: spleen
fraction of expression in the spleen compared with SM-102 ([4]; intravenous): higher fraction of expression in the spleen than SM-102

Apparent pKa [2]: 6-7
Compound: CCCCCCCCCCN(CCCCCCCCCC)CCCCOC(=O)CCCCN(CCO)CCCCC(=O)OCCCCN(CCCCCCCCCC)CCCCCCCCCC [Compound I-7]
intramuscular expression (in words) [3]: higher intramuscular expression than DLin-MC3-DMA

Apparent pKa [2]: 6-7
in vitro degradation rate, faster than Compound I-4 ([6]; 10 mM): ~50%
Compound: CCCCCCCCCCN(CCCCCCCCCC)CCCC(=O)OCCCN(CCO)CCCOC(=O)CCCN(CCCCCCCCCC)CCCCCCCCCC [Compound I-8]
intramuscular expression (in words) [3]: higher intramuscular expression than DLin-MC3-DMA
organ in which the highest total flux was measured [4]: liver
fraction of expression in the spleen compared with SM-102 ([4]; intravenous): higher fraction of expression in the spleen than SM-102

Second part, the compound before the results:

Compound: CCCCCCCCCCN(CCCCCCCCCC)CCOC(=O)CCN(CCO)CCC(=O)OCCN(CCCCCCCCCC)CCCCCCCCCC [Compound I-1]
mRNA encapsulation efficiency relative to amide analogue (Compound I-12) [1]: significantly reduced
Apparent pKa relative to amide analogue (Compound I-12 / F16) [2]: significantly reduced
intramuscular expression (in words) [3]: significantly reduced intramuscular expression

Compound: CCCCCCCCCCN(CCCCCCCCCC)CCCOC(=O)CCN(CCO)CCC(=O)OCCCN(CCCCCCCCCC)CCCCCCCCCC [Compound I-2]
organ in which the highest total flux was measured [4]: liver
fraction of expression in the spleen compared with SM-102 ([4]; intravenous): higher fraction of expression in the spleen than SM-102

Compound: CCCCCCCCCCN(CCCCCCCCCC)CCCOC(=O)CCCCN(CCO)CCCCC(=O)OCCCN(CCCCCCCCCC)CCCCCCCCCC [Compound I-6]
Apparent pKa [2]: 6-7
intramuscular expression (in words) [3]: higher intramuscular expression than DLin-MC3-DMA; also recorded: highest intramuscular expression of all compounds tested
expression compared with SM-102 in spleen and liver ([4]; intravenous): higher expression than SM-102 in the spleen but not in the liver
expression in organs among the compounds related to this disclosure ([4]; intravenous): highest expression in all organs
fraction of expression in the spleen compared with SM-102 ([4]; intravenous): higher fraction of expression in the spleen than SM-102
Kp [5, 7]: 46
Kp [5, 8]: 962
Kp [5, 9]: 59
half-life ([5]; mouse plasma, IM mRNA-LNP): 15.3 h
AUC(0-t) ([5]; mouse plasma, IM mRNA-LNP): 1030 ng·h/mL
Cmax ([5]; mouse plasma, IM mRNA-LNP): 108 ng/mL
Overall tissue exposure (AUC0-tlast), liver ([5]; IM mRNA-LNP): 47.0 µg·h/g
Overall tissue exposure (AUC0-tlast), muscle ([5]; IM mRNA-LNP): 994 µg·h/g
time of peak plasma level ([5]; mouse plasma, IM mRNA-LNP): 3 h
Overall tissue exposure (AUC0-tlast), spleen ([5]; IM mRNA-LNP): 61.1 µg·h/g
detection in urine ([5]; IM mRNA-LNP): Neither Compound I-12 nor Compound I-6 were detected in urine

Compound: CCCCCCCCCCN(CCCCCCCCCC)CCNC(=O)CCN(CCO)CCC(=O)NCCN(CCCCCCCCCC)CCCCCCCCCC [Compound I-12]
organ in which the highest total flux was measured [4]: spleen
time required to have measurable levels of hydrolysis [6]: 10 days
Kp [5, 7]: 50
Kp [5, 8]: 236
Kp [5, 9]: 28
half-life ([5]; mouse plasma, IM mRNA-LNP): 295 h
AUC(0-t) ([5]; mouse plasma, IM mRNA-LNP): 13800 ng·h/mL
Cmax ([5]; mouse plasma, IM mRNA-LNP): 348 ng/mL
Overall tissue exposure (AUC0-tlast), liver ([5]; IM mRNA-LNP): 694 µg·h/g
Overall tissue exposure (AUC0-tlast), muscle ([5]; IM mRNA-LNP): 3244 µg·h/g
plasma AUC0-tlast, fold greater than Compound I-6 ([5]; mouse plasma, IM mRNA-LNP): ~13 fold
time of peak plasma level ([5]; mouse plasma, IM mRNA-LNP): 6 h
Overall tissue exposure (AUC0-tlast), spleen ([5]; IM mRNA-LNP): 391 µg·h/g
detection in urine ([5]; IM mRNA-LNP): Neither Compound I-12 nor Compound I-6 were detected in urine
excreted in feces ([5]; mouse, after 21 days post-dose): Approximately 18%

Compound: CCCCC/C=C\C/C=C\CCCCCCCCC(CCCCCCCC/C=C\C/C=C\CCCCC)OC(=O)CCCN(C)C [DLin-MC3-DMA]
time required to have measurable levels of hydrolysis [6]: 10 days

Compound: CCCCCCCCCCCOC(=O)CCCCCN(CCO)CCCCCCCC(=O)OC(CCCCCCCC)CCCCCCCC [SM-102, reference compound]
organ in which the highest total flux was measured [4]: liver
time to complete degradation (base-catalyzed hydrolysis) ([6]; 10 mM): ≤ 180 min

Compound: ALC-0315
time required to have measurable levels of hydrolysis [6]: 10 days
